From US8124051B2, “Complex drug delivery composition and method for treating cancer” (priority 2003, dated 2012)
Where no end group is shown, it is not given here. [ ]: non-standard residue; d: D form.

How the values were obtained:
[1] = test system: A2780 human ovarian carcinoma cells; assay: RT-PCR expression of caspases, APAF-1 and SMAC; type: cell-based
Description: The effect of the LHRH-BH3 peptide on apoptosis was analyzed by measuring transcriptional and translational levels and activity of human caspases. […] Active caspase 9, in turn, activates a cascade of downstream caspases, as evidenced by increased expression levels, which subsequently leads to induction of apoptosis.
Cystein aspartate-specific proteases (caspases). Three approaches were used to analyze the role of each of the human caspases in the apoptosis induction. First, the expression of genes encoding human caspases 1-10 and the Apoptotic Protease Activating Factor (APAF-1) and Second Mitochondria-Derived Activator of Caspase (SMAC) were studied by RT-PCR (Minko, et al. (1999) supra; Minko, et al. (2000) supra). […] Therefore, in addition to the measurement of the gene expression, the amount of active caspases and activity of the enzymes was measured. The amount of active caspases was estimated by western blot analysis. The activity of expressed caspases was measured using the Caspase Protease Assay kit (MBL International, Watertown, Mass.) or a colorimetric protease assay kit (PanVera, Madison, Wis.) (Minko, et al. (2001) supra). Cells were separately incubated with the conjugates for 48 hours. The assay colormetric assay is based on the spectrophotometric detection of the chromophore p-nitroanilide (pNA) after cleavage from the substrate, X-pNA. An increase in caspase activity was determined by comparing levels in cells exposed to conjugates to levels in cells of the untreated control incubated with saline.
(§1) Gene expression. A combination of reverse transcription (RT) and polymerase chain reaction (PCR) was used for the analysis of gene expression as described (Minko, et al. (1999) J. Controlled Rel. 59:133-148). Briefly, total cellular RNA was isolated using an RNeasy kit (QIAGEN,™, Valencia, Calif.) and a […]™ micro-spin homogenizer (QIAGEN). First-strand cDNA was synthesized by Ready-To-Go You-Prime First-Strand Beads (Amersham Biosciences, Piscataway, N.J.) according to the manufacturer's instructions with 2 μg of total cellular RNA (from 1×10^7 cells) and 100 ng of random hexadeoxynucleotide primer (Amersham Biosciences, Piscataway, N.J.). After synthesis, the reaction mixture was diluted 1:3 with water and immediately subjected to PCR, which was carried out using GenAmp PCR System 2400 (Perkin Elmer Instruments, Shelton, Conn.). The pairs of primers used to amplify each type of cDNA and PCR regimes are well-known in the art (Kunath, et al. (2000) supra; Minko, et al. (2003) supra; Minko, et al. (2002) supra; Minko, et al. (1999) supra; Minko, et al. (2000) supra; Minko, et al. (2001) supra). PCR products were separated in 4% NUSIEVE® 3:1 RELIANT® agarose gels (BMA, East Rutherford, N.J.) in 1×TBE buffer (0.089 M Tris/Borate, 0.002 M EDTA, pH 8.3) by submarine electrophoresis. The gels were stained with ethidium bromide and digitally photographed. To calculate the size and amount of PCR products, a Low DNA Mass ladder (GibcoBRL, Carlsbad, Calif.) was used. β2-microglobulin was used as an internal standard and to confirm the efficacy of PCR (Kunath, et al. (2000) supra; Minko, et al. (2001) supra).

[2] = test system: LHRHR-positive A2780 human ovarian carcinoma cells; assay: Cytotoxicity, modified MTT assay; type: cell-based; conditions: for toxicity: LHRHR-positive cancer cells, up to the highest possible concentration
Description: (§2) In contrast, LHRH-BH3 peptide was not toxic in cancer cells not expressing LHRHR. Further, non-targeted Ant-BH3 peptide was toxic in both LHRHR-positive and negative cancer cells. […] Thus, the LHRH peptide specifically targets cancer cells expressing the LHRHR and facilitates the uptake of LHRH-conjugates.
Cytotoxicity of CPT, CPT-PEG, CPT-PEG-BH3, and CPT-PEG-LHRH conjugates and the combination of CPT-PEG-BH3 with CPT-PEG-LHRH conjugates was analyzed using a modified MTT assay (Minko, et al. (1998) supra) in sensitive A2780 and multidrug resistant A2780/AD human ovarian carcinoma cells.
(§3) Cytotoxicity. The cytotoxicity of drugs were assessed using a modified MTT (3-(4,5-dimethylthiazol-2-yl)-2,5-diphenyltetrazolium bromide) assay (Kunath, et al. (2000) Eur. J. Pharm. Biopharm 49:11-15; Minko, et al. (1998) J. Controlled Rel. 54:223-233; Minko, et al. (1999) J. Controlled Rel. 59:133-148; Minko, et al. (2002) Cancer Chemother. Pharmacol. 50:143-150). To measure cytotoxicity, cells were incubated in a 96-well microtiter plate with 45 different equivalent concentrations of CPT ranging from […] in a complex conjugate. Six wells were used for control cells. The duration of incubation was varied from 3 to 72 hours to find an optimal range of incubation time for each complex conjugate.

[3] = test system: human ovarian carcinoma cells; assay: Cytotoxicity (IC50 dose) of Ant, Ant-BH3 peptide and DOX; type: cell-based; conditions: highest possible concentration
Description: (§4) By way of example, the effectiveness of a BH3 peptide ([…] SEQ ID NO:1) to increase cell death by inducing the mitochondrial dysfunction leading to necrosis was measured. BH3 peptide was delivered into human ovarian carcinoma cells by the Antennapedia (Ant) internalization sequence (Arg-Gln-Ile-lys-[…] SEQ ID NO:2). Mitochondrial function was assessed by flow cytometry analysis using the lipophilic cationic fluorescent probe 5,5′,6,6′-tetrachloro-1,1′,3,3′-tetraethylbenzimidazolcarbo-cyanine iodide (JC-1). This probe exists as a monomer, and upon excitation at 490 nm, emits light at 527 nm resulting in green fluorescence. At high mitochondrial transmembrane potential, JC-1 forms multimers, known as J-aggregates, and emits light at 590 nm upon excitation at 490 nm resulting in red fluorescence. Therefore, the red/green fluorescence ratio measured by flow cytometry reflects the number of functioning mitochondria. […] The effect of the Ant-BH3 peptide on mitochondrial transmembrane potential was also determined.
Cytotoxicity. The cytotoxicity of drugs were assessed using a modified MTT (3-(4,5-dimethylthiazol-2-yl)-2,5-diphenyltetrazolium bromide) assay (Kunath, et al. (2000) Eur. J. Pharm. Biopharm 49:11-15; Minko, et al. (1998) J. Controlled Rel. 54:223-233; Minko, et al. (1999) J. Controlled Rel. 59:133-148; Minko, et al. (2002) Cancer Chemother. Pharmacol. 50:143-150). […]

[4] = test system: genes encoding antiapoptotic members of the BCL-2 protein family; assay: RT-PCR expression of genes encoding antiapoptotic members of the BCL-2 protein family; type: cell-based, human; conditions: 48 hours, IC50 dose of Ant-BH3 peptide; β2-m internal standard
Description: (§5) The influence of BH3 peptide, delivered by an Ant-BH3 fusion peptide, on the expression of proteins and genes encoding proapoptotic and antiapoptotic members of the BCL-2 protein family was determined. The expression of genes was measured by RT-PCR using β2-m as an internal standard.
(§6) Cell death signaling pathways. To characterize the cell death signaling pathways, the expression of p53, c-fos, c-jun, proapoptotic (BAD, BAX, BCL-G, BCL-W, BCL-XS, BID, BIK, BIM, BNIP 1-3, HARAKIR1, MSL-1S, NIX) and antiapoptotic (BCL-2, AVEN, BAG, BCL-XL, BFL, DAD1, MSL-1) members of BCL-2 family of proteins and genes encoding these proteins were measured by western blot analysis and RT-PCR, respectively using well-established methods known to those of skill in the art.
as §1

[5] = test system: genes encoding proapoptotic members of the BCL-2 protein family; assay: RT-PCR expression of genes encoding proapoptotic members of the BCL-2 protein family; type: cell-based, human; conditions: 48 hours, IC50 dose of Ant-BH3 peptide; β2-m internal standard
Description: as §5, §6, §1

[6] = test system: human ovarian carcinoma cells; assay: Mitochondrial transmembrane potential, JC-1 probe, flow cytometry; type: cell-based; conditions: JC-1 red/green fluorescence ratio
Description: as §4, with “mitochondria. Ant alone was not toxic up to the highest possible concentration (1 mg/mL). In contrast, the combination of Ant with BH3 peptide led to a significant increase in toxicity of the peptide.” for “mitochondria.”

[7] = test system: cancer cells not expressing LHRHR; assay: Cytotoxicity in LHRHR-negative cancer cells; type: cell-based
Description: as §2, §3

[8] = test system: A2780 human ovarian carcinoma cells; assay: Expression of BCL-2, BCL-XL, SMAC, APAF-1, caspase 9 and caspase 3 genes after CPT conjugates; type: cell-based; conditions: 48-hour incubation
Description: The expression of genes encoding antiapoptotic members of the BCL-2 protein family (BCL-2 and BCL-XL), caspase activators (SMAC and APAF-1), caspase 9 (apoptosis inhibitor) and caspase 3 (apoptosis executor) as well as the activity of the caspases was measured after a 48-hour incubation of A2780 human ovarian carcinoma cells with CPT, CPT-PEG, CPT-PEG-BH3, or CPT-PEG-LHRH conjugates.
Gene expression. A combination of reverse transcription (RT) and polymerase chain reaction (PCR) was used for the analysis of gene expression as described (Minko, et al. (1999) J. Controlled Rel. 59:133-148). Briefly, total cellular RNA was isolated using an RNeasy kit (QIAGEN,™, Valencia, Calif.) and a […] ™ micro-spin homogenizer (QIAGEN). First-strand cDNA was synthesized by Ready-To-Go You-Prime First-Strand Beads (Amersham Biosciences, Piscataway, N.J.) according to the manufacturer's instructions with 2 μg of total cellular RNA (from 1×10^7 cells) and 100 ng of random hexadeoxynucleotide primer (Amersham Biosciences, Piscataway, N.J.). After synthesis, the reaction mixture was diluted 1:3 with water and immediately subjected to PCR, which was carried out using GenAmp PCR System 2400 (Perkin Elmer Instruments, Shelton, Conn.). […]

LHRH receptor = molecular target: T1, LHRH receptor (human, UniProt P30968 1-328); assay: cell-based or functional assay
T1 sequence (looked up): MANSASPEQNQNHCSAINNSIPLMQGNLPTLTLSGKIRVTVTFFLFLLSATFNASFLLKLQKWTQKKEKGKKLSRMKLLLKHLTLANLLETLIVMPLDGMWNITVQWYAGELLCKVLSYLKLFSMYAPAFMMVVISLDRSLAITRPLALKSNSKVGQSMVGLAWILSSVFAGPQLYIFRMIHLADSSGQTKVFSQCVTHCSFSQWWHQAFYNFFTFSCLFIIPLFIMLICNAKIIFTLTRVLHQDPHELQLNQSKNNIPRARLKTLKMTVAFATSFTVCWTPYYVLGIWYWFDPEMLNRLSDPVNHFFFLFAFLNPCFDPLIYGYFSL

[9] = A2780, 48 hours, IC50 dose of peptide, ratio of band intensity to β2-m internal standard

## Met-Gly-Gln-Val-Gly-Arg-Gln-Leu-Ala-Ile-Ile-Gly-Asp-Asp-Ile-Asn-Arg-Arg-Tyr (MGQVGRQLAIIGDDINRRY; Synthetic BH3 domain peptide) [BH3 peptide]
[1]; A2780 cells
  expression of caspases 1, 4, and 5: not expressed
[2]; A2780, maximal possible concentration limited by solubility
  concentration up to which not toxic: > 1 mg/mL

## CCNC(=O)[C@@H]1CCCN1C(=O)[C@H](CCCNC(=N)N)NC(=O)[C@H](CC(C)C)NC(=O)[C@@H](CCCCN)NC(=O)[C@H](Cc1ccc(O)cc1)NC(=O)[C@H](CO)NC(=O)[C@H](Cc1c[nH]c2ccccc12)NC(=O)[C@H](Cc1c[nH]cn1)NC(=O)[C@@H]1CCC(=O)N1 [LHRH peptide, LHRH-Lys^6-des-Gly^10-Pro^9-ethylamide, reference compound]
[2]
  toxicity: did not have any significant toxicity

## Arg-Gln-Ile-lys-Ile-Trp-Phe-Gln-Asn-Arg-Arg-Met-Lys-Trp-Lys-Lys (RQIKIWFQNRRMKWKK; Antennapedia internalization peptide)
[3]
  concentration up to which not toxic: > 1 mg/mL

## RQIKIWFQNRRMKWKKMGQVGRQLAIIGDDINRRY [Ant-BH3]
[4]
  Expression, % of Control: AVEN: 78 ± 2 % of Control
  Expression, % of Control: BAG: 56 ± 5 % of Control
  Expression, % of Control: BCL-2: 66 ± 7 % of Control
  Expression, % of Control: BCL-W: 97 ± 8 % of Control
  Expression, % of Control: BCL-XL: 64 ± 3 % of Control
  Expression, % of Control: BFL: 70 ± 2 % of Control
  Expression, % of Control: DAD-1: 99 ± 5 % of Control
  Expression, % of Control: MCL-1L: 108 ± 8 % of Control
[1]; [9]
  Mean Gene Expression ± SD: APAF-1: 78 ± 3
  Mean Gene Expression ± SD: Caspase 2: 134 ± 5
  Mean Gene Expression ± SD: Caspase 3: 60 ± 5
  Mean Gene Expression ± SD: Caspase 6: 77 ± 5
  Mean Gene Expression ± SD: Caspase 7: 88 ± 8
  Mean Gene Expression ± SD: Caspase 8: 70 ± 6
  Mean Gene Expression ± SD: Caspase 9: 126 ± 11
  Mean Gene Expression ± SD: Caspase 10: 48 ± 3
  Mean Gene Expression ± SD: SMAC: 77 ± 2
[1]; A2780 cells
  expression of APAF-1 and SMAC: up-regulation
[5]
  Expression, % of Control: BAD: 90 ± 8 % of Control
  Expression, % of Control: BAX: 91 ± 9 % of Control
  Expression, % of Control: BCL-G: 87 ± 11 % of Control
  Expression, % of Control: BCL-XS: 168 ± 11 % of Control
  Expression, % of Control: BID: 99 ± 9 % of Control
  Expression, % of Control: BIK: 511 ± 42 % of Control
  Expression, % of Control: BIM: 114 ± 17 % of Control
  Expression, % of Control: BNIP-1: 93 ± 8 % of Control
  Expression, % of Control: BNIP-2: 173 ± 14 % of Control
  Expression, % of Control: BNIP-3: 69 ± 6 % of Control
  Expression, % of Control: HRK: 88 ± 10 % of Control
  Expression, % of Control: MLS-1S: 130 ± 11 % of Control
  Expression, % of Control: NIX: 89 ± 10 % of Control
[2]
  toxicity: toxic
[6]
  changes in mitochondrial membrane potential: did not lead to statistically significant changes
[7]
  toxicity: toxic

## CC[C@@]1(O)C(=O)OCc2c1cc1n(c2=O)Cc2cc3ccccc3nc2-1 [CPT, camptothecin]
[8]
  activation of caspase-dependent apoptosis pathway and cellular antiapoptotic defense (gene expression): activated both caspase-dependent pathways of apoptosis and cellular antiapoptotic defense

## QHWSY[dK]LRP-NHEt (ends and bridges not checked) [LHRH-Lys^6-des-Gly^10-Pro^9-ethylamide (active analog of the LHRH peptide)]
LHRH receptor
  concentration of LHRH that decreased cytotoxicity of LHRH-BH3 peptide by 50% (EC50 dose of LHRH peptide), A2780 cells: 7.3e-05 ng/mL

B1: LHRH-BH3 peptide (peptide)
peptide 1: QHWSY[dK]LRP-NHEt
peptide 2: MGQVGRQLAIIGDDINRRY
modifications: ends and bridges not checked; also: LHRH analog and BH3 peptide are joined, the linkage is not given here
LHRH receptor
  cytotoxicity IC50 (modified MTT assay), LHRHR-positive A2780 human ovarian cancer cells: 3.97 ng/mL
  toxicity in MCF-7 cells (LHRHR expression 1.6-fold less) relative to toxicity in A2780 cells, fold less: 10 fold
  toxicity in PC-3 cells (LHRHR expression 3.2-fold less) relative to toxicity in A2780 cells, fold less: 100 fold
